Laboratory results: US20090275503A1, “DIASTEREOMERIC PEPTIDES FOR MODULATING T CELL IMMUNITY” (Yeda Research and Developent Co., Ltd. at the Weizman …, priority 2005, published 2009)
Non-standard residues stand in square brackets, D forms with d. No end group written: not given here.

How the values were obtained:
Lewis rats [1] = assay: Delayed type hypersensitivity to PPD in AA rats (Part A); format: in vivo, rat; conditions: 16 days after AA induction, ear thickness 48 hr after PPD
Protocol: Twenty μl of PPD (0.5 mg/ml in PBS) were injected intradermally into the pinna of the right ear of each rat on day 16 after AA induction; 20 μl of sterile PBS were injected in the left ear as control. The thickness of the ear was measured 48 hr later using a vernier caliper and expressed as the difference between the right and the left ear (Quintana et al., 2005).

rat TCR = assay: Co-immunoprecipitation of fluorescence-labeled peptides with TCR molecules; format: binding; conditions: Rho-labeled peptides, activated A2b T cells
Protocol: Activated A2b T cells (2×10^6) were cultured for 1 hr at 37° C. in the presence of CP or 2D-CP (25 μg/ml), or 2G-CP, and lysed for 15 min on ice in 0.1 ml lysis buffer (Adachi et al., 1996). Insoluble material was removed by centrifugation at 10.000 g for 10 min at 4° C. The lysate was then incubated overnight with Protein A-plus Agarose beads (Santa Cruz Biotechnology Inc., Santa Cruz, Calif., USA) bound to antibodies to the rat TCR or MHC class 1. The antibodies reactive against the rat TCR (clone R73) or HSP60 (clone LKI) were purified from the respective hybridomas at our lab; antibodies to rat CD28, actin and the rat MHC class 1 were purchased from Serotec (Oxford, UK). After an overnight incubation at 4° C., the beads were washed with lysis buffer, boiled for 10 minutes and the protein supernatant run in a 4-20% SDS-PAGE. The presence of co-immunoprecipitated peptide was detected by the Typhoon 9400 variable mode imager.
Next, co-immunoprecipitation experiments were performed. The affinity of the TCR/CP, the TCR/2D-CP and TCR/2G-CP interactions were compared by performing a series of co-precipitation experiments using different concentrations of Rho-labeled CP, 2D-CP and 2G-CP peptides.

target cells = assay: Cytotoxic effect on the target cells (Part A); conditions: incubated with the target cells
Lewis rats [2] = assay: Adjuvant arthritis (AA) in Lewis rats (Part A); format: in vivo, rat
Protocol: To test the effect of CP on T-cell activation in vivo, the experimental T-cell mediated autoimmune disease adjuvant arthritis (AA) was used. AA was induced by injecting 50 μl of Mt suspended in IFA (10 mg/ml) at the base of the tail. At the time of AA induction, each rat also received 100 μg of all-L CP, 2D-CP or 2G CP control peptide (or PBS) dissolved in 50 μl of IFA and mixed with Mt/IFA used to induce AA. The day of AA induction was designated as day 0. Disease severity was assessed by direct observation of all 4 limbs in each animal. A relative score between 0 and 4 was assigned to each limb, based on the degree of joint inflammation, redness and deformity; thus the maximum possible score for an individual animal was 16 (Quintana et al., 2002). The mean AA score (±SEM) is shown for each experimental group. Arthritis was also quantified by measuring hind limb diameter with a caliper. Measurements were taken on the day of the induction of AA and 26 days later (at the peak of AA); the results are presented as the mean±SEM of the difference between the two values for all the animals in each group. The person who scored the disease was blinded to the identity of the groups.
Next, the contribution of the secondary structure and the side-chains to the inhibitory effects of CP on T cell activation In vivo was analyzed, using the experimental autoimmune disease Adjuvant Arthritis (AA). Immunization of Lewis rats with Mt triggers AA, an autoimmune disease driven by Mt-specific T cells that cross-react with self-antigen (Holoshitz et al., 1984; Holoshitz et al., 1983). PPD and Mt176-90 are targeted by the arthritogenic T-cell response (Anderton et al., 1994); indeed immunomodulatory therapies that inhibit the progression of arthritis have been associated with a decreased T cell response to PPD and Mt176-90 and with a diminished delayed type hypersensitivity (DTH) response to PPD (van Eden et al., 1985).

LNC from Mt primed rats = assay: T-cell proliferation of LNC from Mt-immunized rats activated with PPD or Mt176-90 (Part A); format: cell-based, rat
BALB/c mice = assay: Delayed type hypersensitivity to oxazalone in mice; format: in vivo, mouse
Protocol: Groups of 5 female inbred BALB/c mice (The Jackson Laboratory) were sensitized on the shaved abdominal skin with 100 μl of 2% Oxazalone dissolved in acetone/olive oil [4:1 (vol/vol)] applied topically. DTH sensitivity was elicited 5 days later by challenging the mice with 20 μl of 0.5% Oxazalone in acetone/olive oil, 10 μl administered topically to each side of the ear. A constant area of the ear was measured immediately before challenge and 24 h after challenge with a Mitutoyo engineer's micrometer. The individual measuring ear swelling was unaware of the identity of the groups of mice. The DTH reaction is presented as the increment of ear swelling after challenge expressed as the mean±SEM in units of 10-2 mm. One hour after the challenge the mice's ears were treated topically with either all-L CP or with 2D-CP, both dissolved in 40 μl DMSO. The activity of the peptide treatments was compared to treatment with DMSO alone for “untreated mice” and Dexamethasone (100 μg/ml in saline) as a positive control.
To test whether TCR trans-membrane peptides could inhibit the elicitation of existing DTH reactivity, groups of naïve BALB/c mice were sensitized to 2% oxazalone. Five days later, the mice were challenged with 0.5% oxazalone administered to the ear. An hour after the challenge, the mice were treated with Dimethylsulfoxide (DMSO), all-L CP 150 μg (6 mg/kg) in DMSO, 2D-CP 150 μg (6 mg/kg) in DMSO, or dexamethasone, applied topically. On the following day, ear thickness was measured the swelling of DMSO treated mice (0.33±0.01 mm) was compared to that of mice treated with all-L CP (0.30±0.01 mm), 2D-CP (0.27±0.01 mm) and Dexamethasone (0.15±0.02 mm). […] Thus, 2D-CP can inhibit a T-cell mediated immune reaction in subjects already sensitized to the antigen.

Sequence: GLRILLLKV [2D-CP] (GL[dR]ILLL[dK]V-NH2; also: rhodamine label, position not given here) [CP diastereomer]
- Reduction in the DTH response to PPD (Lewis rats [1]): 51%
- Co-precipitation with the TCR (rat TCR): can be co-precipitated with the TCR
- Cytotoxic effect (target cells): None of the peptides (all-L CP, 2D-CP or 2G CP) had a cytotoxic effect
- Mean maximum AA score (Lewis rats [2]; 100 μg peptide per rat at AA induction, maximum possible score 16): 6.6±0.7
- Effect on adjuvant arthritis (clinical score and paw swelling) (Lewis rats [2]; 100 μg peptide per rat with Mt at the time of AA induction): significantly milder arthritis
- Further decrease in the AA score (Lewis rats [2]; dose increased to 900 μg per rat): 25%
- Improvement in paw swelling (Lewis rats [2]; dose increased to 900 μg per rat, day 26): 50%
- Inhibition of T-cell proliferation to PPD and to Mt176-90 (LNC from Mt primed rats; LNC, 72 hr, 3H-thymidine incorporation): inhibited T-cell proliferation to PPD and to Mt176-90 in a dose-dependent manner
- Inhibition of T-cell proliferation compared with all-L CP (LNC from Mt primed rats; at lower concentrations, p<0.02 (FIG. 3B)): somewhat greater
- Reduction in ear swelling compared with all-L CP (BALB/c mice; 150 μg (6 mg/kg) topical in DMSO): twice the reduction
- Ear swelling (BALB/c mice; topical treatment 1 hr after oxazalone challenge, peptides 150 μg (6 mg/kg) in DMSO, measured following day): 0.27±0.01 mm
